Experimental data from patent publication US20260151389A1, “Use of Tetramethylpyrazine Nitrone Derivatives In The Treatment of Ischemic Stroke” (GUANGZHOU MAGPIE PHARMACEUTICALS CO., L.T.D., priority 2021, published 2026).

System: patients with acute ischemic stroke
Test: multicenter, randomized, double-blind, parallel clinical trial in acute ischemic stroke
Format: in vivo, human
Conditions: for increase in percentage of patients with mRS 0-1 compared to the saline group: non-thrombolytic group, TBN 1400 mg iv twice a day for 7 days
Source text: The present invention adopts a multicenter, randomized, double-blind, parallel trial clinical research design. The patients with acute ischemic stroke included in the clinical trial-center as subjects (all signed informed consent forms) were divided into non-thrombolytic group and thrombolytic group. The non-thrombolytic group consists of the saline group and the TBN group. The thrombolytic group consists of the t-PA group and the combination group of TBN+t-PA.
Subjects of the tests: Patients diagnosed with acute ischemic stroke were selected by clinical trial centers based on the diagnostic criteria of “Chinese Guidelines for the Diagnosis and Treatment of Acute Ischemic Stroke (2018)”.
Administration method: TBN (1400 mg) is dissolved in a sodium chloride injection bag (specification: 100 mL) and administered intravenously for 30 minutes. Dose of t-PA: 0.9 mg/Kg/dose; usage: added to physiological saline, 10% of the dose is administered via injected intravenous injection immediately within 1-2 minutes, and the remaining 90% is administered via intravenous drop infusion within 60 minutes. t-PA is administered only once on the first day of acute ischemic stroke. The medication schedule of TBN: D1-D7 administered twice a day, with an interval of 12 hours, for 7 consecutive days.

Cc1nc(C)c(/C=[N+](\[O-])C(C)(C)C)nc1C [TBN, cis-2-methyl-N-[(3,5,6-trimethylpyrazin-2-)methylene]2-propamine oxide]
safety and tolerability (clinical trial patients): good safety and tolerability | increase in percentage of patients with mRS 0-1 compared to the saline group (30th day): 6.6 percentage points | increase in percentage of patients with mRS 0-1 compared to the saline group (90th day): 3.3 percentage points
